The text below walks through data of US6048896A, “4-phenyl-4-oxo-2-butenoic acid derivatives with kynurenine-3-hydroxylase inhibiting activity” (Pharmacia & Upjohn S.p.A., priority 1995, dated 2000).

SMILES strings stand for the structures.

The subject of series [1] is CNS. Particulars: cited from earlier work.
Series [2] has as its system ionotropic excitatory aminoacid receptors. As to conditions: preferentially at glycine co-agonist site of the NMDA receptor; cited from earlier work.
In series [3] the target is T1, kynurenine-3-hydroxylase (Rattus norvegicus, UniProt O88867). Nature of the series: Kynurenine-3-hydroxylase Assay in the Rat Brain. It is filed as biochemical. More on the design: from tissue. As to conditions: rat brain homogenate, 50 μM L-kynurenine, 60 min incubation, pH 7.5; read-out: Enzyme Inhibition (Brain) IC50. The method, then:
Kynurenine-3-hydroxylase Assay in the Rat Brain
Brain was homogenized in ice-cold 0.32 M sucrose and centrifuged at 12000×g for 30 min at 4° C. The pellet was washed three times with 0.32 M sucrose by centrifugation and suspended in 0.14 M KCl in 20 mM K-phosphate buffer at pH 7 (1 g tissue in 2 ml buffer).
The reaction mixture contained: 75 μl of suspended homogenate; 100 μl of substrate solution containing 50 mM K-phosphate buffer pH 7.5, 2 mM MgCl2, 0.4 mM NADPH, 50 μM L-kynurenine (final concentration), and 25 μl of different concentrations of inhibitor solutions. The reaction was stopped by addition of 200 μl of 1 M HClO4 after 60 min incubation. L-3-hydroxykynurenine formed was quantified by HPLC with coulometric detection at a working voltage of +0.2 V. The column was a 10 cm C18 reversed phase (3 μm. The mobile phase consisted of 950 ml distilled water, 20 ml acetonitrile, 9 ml triethylamine, 5.9 ml phosphoric acid, 100 mg sodium EDTA and 1.5 g heptanesulfonic acid. The flow rate was 1 ml/min.

In series [4] the target is T1, kynurenine-3-hydroxylase. Nature of the series: Kynurenine-3-hydroxylase Assay in the Rat Liver. More on the design: Rat liver mitochondrial extract was used as enzymatic preparation for this assay; from tissue; host or cells: rat liver mitochondrial extract. It is filed as biochemical. As to conditions: rat liver mitochondrial extract, 0.025 mM L-kynurenine, 37° C., 30 min, pH 8.1; read-out: Enzyme Inhibition (Liver) IC50. The method, then: Kynurenine-3-hydroxylase Assay in the Rat Liver
The assay for kynurenine 3-hydroxylase was based on the enzymatic synthesis of tritiated water during the hydroxylation reaction. Radiolabeled water was quantified following selective adsorption of the isotopic substrate and its metabolite with activated charcoal.
Rat liver mitochondrial extract was used as enzymatic preparation for this assay.
The assay for kynurenine 3-hydroxylase activity was carried out at 37° C. for a time of 30 min. The reaction mixture of a total volume of […] was constituted of […] of suspended extract, 100 mM Tris/Cl^- buffer pH 8.1, 10 mM EDTA, 100 mM KCl, 0.8 mM NADPH, 0.025 mM L-kynurenine, […] L-(3,5-^3 H)Kynurenine (10 Ci/mmol) and […] of different concentration of inhibitor solutions. After the incubation the reaction was terminated by the addition of 1 mL of 7.5% (w/v) activated charcoal, vortexed and centrifugated for 7 min.
A […] aliquot of supernatant was counted by scintillation spectroscopy in 5 ml of liquid scintillation.

For series [5], the system named is neuronal cell cultures. Particulars: relatively low concentrations, prolonged period of time or in combination with glutamate; cited from earlier work.
Series [6] has as its system N-methyl-D-aspartate (NMDA) receptor. Particulars: cited from earlier work.

T1 sequence (O88867 whole entry): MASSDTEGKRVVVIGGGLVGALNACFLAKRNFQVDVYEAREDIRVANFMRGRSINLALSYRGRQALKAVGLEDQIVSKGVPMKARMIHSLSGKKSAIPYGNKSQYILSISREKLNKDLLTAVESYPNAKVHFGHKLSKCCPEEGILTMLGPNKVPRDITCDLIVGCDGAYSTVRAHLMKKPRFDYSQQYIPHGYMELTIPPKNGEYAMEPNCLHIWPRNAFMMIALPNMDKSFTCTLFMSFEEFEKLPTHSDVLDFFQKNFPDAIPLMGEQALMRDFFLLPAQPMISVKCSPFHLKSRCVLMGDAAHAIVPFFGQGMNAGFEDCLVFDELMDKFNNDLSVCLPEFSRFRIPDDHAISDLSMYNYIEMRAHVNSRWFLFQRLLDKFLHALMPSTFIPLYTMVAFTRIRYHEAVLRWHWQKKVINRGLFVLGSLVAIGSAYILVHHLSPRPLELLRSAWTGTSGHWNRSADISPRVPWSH

Take `O=C(O)c1cc(=O)c2ccccc2[nH]1` [KYNA, kynurenic acid]: in series [1] (co-injected with QUIN), the “prevention of excitotoxic neuronal damage evoked by QUIN” value is reported as “able to prevent the excitotoxic neuronal damage”. For the same compound, the “effect when injected in the CNS” value in series [1] is recorded as “neuroprotective agent”. Besides, the “anticonvulsant and neuroprotective properties” value in series [1] (several animal models) is “anticonvulsant and neuroprotective properties”. Also, the “activity at ionotropic excitatory aminoacid receptors” value in series [2] is “broad spectrum antagonist”.
As usually defined, the IC50 is the concentration at which inhibition is half-maximal. Regarding `O=C(O)/C=C/C(=O)c1ccc(Cl)c(Cl)c1` [PNU 157694, (E)-4-(3',4'-dichlorophenyl)-4-oxo-2-butenoic acid], the values for the 50% inhibitory concentration (IC50) in series [3] and in series [4] were 0.9 µM and 10.4 µM, respectively.
For `O=C(O)/C=C/C(=O)c1ccc(F)c(F)c1` [PNU 157961, (E)-4-(3',4'-difluorophenyl)-4-oxo-2-butenoic acid] the same measures were 1.1 µM and 21.1 µM.
As for `O=C(O)/C=C/C(=O)c1cccc(F)c1` [PNU 158388, (E)-4-(3'-fluorophenyl)-4-oxo-2-butenoic acid], the IC50 in series [3] was determined as 21.8 µM; in series [4] it was 38.6 µM.
For `O=C(O)/C=C/C(=O)c1cccc([N+](=O)[O-])c1` [PNU 158389, (E)-4-(3'-nitrophenyl)-4-oxo-2-butenoic acid], the IC50 was 16.6 µM in series [3] and 30.4 µM in series [4].
For `O=C(O)/C=C/C(=O)c1cccc(Cl)c1` [PNU 158390, (E)-4-(3'-chlorophenyl)-4-oxo-2-butenoic acid], the results for the IC50 in series [3] and in series [4] were 20.4 µM and 21.9 µM, respectively.
For `COC(=O)/C(O)=C\C(=O)c1ccc(Cl)c(Cl)c1` [PNU 158775, Methyl-(E)-2-hydroxy-4-(3',4'-dichlorophenyl)-4-oxo-2-butenoate] the same measures were 0.95 µM and 6.9 µM.
Regarding `O=C(O)/C(O)=C\C(=O)c1ccc(Cl)c(Cl)c1` [PNU 158776, (E)-2-hydroxy-4-(3',4'-dichlorophenyl)-4-oxo-2-butenoic acid], the figures for the IC50 in series [3] and in series [4] were 0.3 µM and 1.8 µM, respectively.
For `C/C(=C\C(=O)c1ccc(Cl)c(Cl)c1)C(=O)O` [PNU 158785, (E)-2-methyl-4-(3',4'-dichlorophenyl)-4-oxo-2-butenoic acid], the IC50 in series [3] stood at 3.4 µM; in series [4], 23.5 µM.
Regarding `CC(=CC(=O)O)C(=O)c1ccc(Cl)c(Cl)c1` [PNU 161213, 3-methyl-4-(3',4'-dichlorophenyl)-4-oxo-2-butenoic acid], the IC50 in series [4] is 26.2 µM.
In the case of `CCOC(=O)/C(O)=C\C(=O)c1ccc(Cl)c(Cl)c1` [PNU 161215, Ethyl-(E)-2-hydroxy-4-(3',4'-dichlorophenyl)-4-oxo-2-butenoate], the values for the IC50 in series [3] and in series [4] were 2.01 µM and 1.9 µM, respectively.
For the compound `O=C(O)/C(O)=C\C(=O)c1cccc(Cl)c1` [PNU 161216, (E)-2-hydroxy-4-(3'-chlorophenyl)-4-oxo-2-butenoic acid], the concentration for half-maximal inhibition (IC50) in series [3] is 6.9 µM; in series [4], 1.2 µM.
As for `O=C(O)/C(O)=C\C(=O)c1cccc(F)c1` [PNU 161217, (E)-2-hydroxy-4-(3'-fluorophenyl)-4-oxo-2-butenoic acid], the concentration for half-maximal inhibition (IC50) in series [3] came to 0.97 µM; in series [4], 2.8 µM.
For `O=C(O)/C(O)=C\C(=O)c1ccc(F)c(F)c1` [PNU 161219, (E)-2-hydroxy-4-(3',4'-difluorophenyl)-4-oxo-2-butenoic acid], in that order: 0.44 µM and 1.2 µM.
As for `O=C(O)/C(O)=C\C(=O)c1ccc(Cl)cc1` [PNU 166909, (E)-2-hydroxy-4-(4'-chlorophenyl)-4-oxo-2-butenoic acid], in series [4], the IC50 was 8.9 µM.
The same measure, in the same setting: the figure for `O=C(O)C=C(Cc1ccccc1)C(=O)c1ccc(Cl)c(Cl)c1` [PNU 167535, 3-benzyl-4-(3',4'-dichlorophenyl)-4-oxo-2-butenoic acid] is 12.3 µM.
As to `O=C(O)c1cccnc1C(=O)O` [QUIN, quinolinic acid], the “neurotoxicity in neuronal cell cultures” value in series [5] was “neurotoxic”. Also, the “activity at NMDA receptor” value in series [6] was “highly selective agonist”. For the same compound, the “in vivo convulsions and lesions” value in series [1] (in vivo) was “produce convulsions and axon sparing lesions”. In addition, the “effect when injected in the CNS” value in series [1] is listed as “neurotoxin”.
